Experimental data reported in ChEMBL document CHEMBL6182935, “Discovery of a Novel Silybin Derivative for the Treatment of Metabolic Dysfunction-Associated Steatohepatitis” (J Med Chem, 2025).
In brackets after ≈: the same amount, converted by molar mass. Values belong to the molecule of their own block, whether it stands above or below them. Activity calls are given as the source filed them. No cut-off for these calls is given here.

Tests used:
[1] = Antioxidant activity assessed as clearing rate incubated for 5 mins in presence of pyrogallol by superoxide anion scavenging assay; type: functional
[2] = Antioxidant activity assessed as inhibition of superoxide anion scavenging activity incubated for 5 mins in presence of pyrogallol; type: functional
[3] = Solubility in […] incubated for 10 mins; type: physicochemical
[4] = Antioxidant activity assessed as inhibition of DPPH free radical scavenging activity incubated for 30 mins under dark condition; type: functional
[5] = Solubility in water incubated for 10 mins; type: physicochemical
[6] = Antioxidant activity assessed as clearing rate incubated for 30 mins under dark condition by DPPH free radical scavenging assay; type: functional
[7] = Solubility in ethyl acetate incubated for 10 mins; type: physicochemical
[8] = Solubility in methanol incubated for 10 mins; type: physicochemical
[9] = Inhibition of lipid peroxidation in egg yolk (unknown origin) preheated with compound and FeSO4 for 15 mins followed by TCA/TBA addition measured after 15 mins by absorbance based assay; type: functional, tissue-based
[10] = Inhibition of lipid peroxidation in egg yolk (unknown origin) at 100 uM preheated with compound and FeSO4 for 15 mins followed by TCA/TBA addition measured after 15 mins by absorbance based assay relative to control; type: functional, tissue-based; set-up: scale not given: the % may be the effect or the level left; conditions: time 30.0 min
[11] = system: Mus musculus; assay: Anti-MASH activity in HFD-fed CCl4-treated male C57BL/6 mouse assessed as reduction in steatosis in liver at 150 mg/kg, po qd treated for 4 weeks by H and E/Oil red O staining based analysis; type: functional, organism-based
[12] = system: Mus musculus; assay: Anti-MASH activity in HFD-fed CCl4-treated male C57BL/6 mouse assessed as reversal of hepatopancreas somatic indices at 150 mg/kg, po qd treated for 4 weeks; type: functional, organism-based
[13] = Toxicity in male Sprague-Dawley rat model of CCl4-induced ALI assessed as animal growth at 100 mg/kg, IG qd pretreated with compound for 7 days followed by CCl4 administration after 2 hrs post-compound treatment measured after 16 hrs post-CCl4 injection; type: organism-based; conditions: in vivo, po, 186 h
[14] = system: Rattus norvegicus; assay: Hepatoprotective activity in male Sprague-Dawley rat model of CCl4-induced ALI assessed as restoration of serum AST level at 100 mg/kg, IG qd pretreated with compound for 7 days followed by CCl4 administration after 2 hrs post-compound treatment measured after 16 hrs post-CCl4 injection; type: functional, organism-based; conditions: time 186.0 hrs
[15] = system: Mus musculus; assay: Anti-MASH activity in HFD-fed CCl4-treated male C57BL/6 mouse assessed as reduction in hepatocyte ballooning in liver at 150 mg/kg, po qd treated for 4 weeks by H and E/Oil red O staining based analysis; type: functional, organism-based
[16] = Toxicity in male Sprague-Dawley rat model of CCl4-induced ALI assessed as body weight change at 100 mg/kg, IG qd pretreated with compound for 7 days followed by CCl4 administration after 2 hrs post-compound treatment measured after 16 hrs post-CCl4 injection; type: organism-based; conditions: in vivo, po, 186 h
[17] = system: Mus musculus; assay: Anti-MASH activity in HFD-fed CCl4-treated male C57BL/6 mouse assessed as reduction in fat accumulation in liver at 150 mg/kg, po qd treated for 4 weeks by Oil red O staining based analysis; type: functional, organism-based
[18] = system: Rattus norvegicus; assay: (§1) Hepatoprotective activity in male Sprague-Dawley rat model of CCl4-induced ALI assessed as reduction in yellowing of liver at 100 mg/kg, IG qd pretreated with compound for 7 days followed by CCl4 administration after 2 hrs post-compound treatment measured after 16 hrs post-CCl4 injection; type: functional, organism-based; conditions: time 186.0 hrs
[19] = Terminal half life in overnight-fasted male Sprague-Dawley rat at 150 mg/kg, po measured up to 12 hrs by HPLC analysis; type: ADME, organism-based; conditions: in vivo, read-out: beta t1/2 (converted)
[20] = system: Rattus norvegicus; assay: Hepatoprotective activity in male Sprague-Dawley rat model of CCl4-induced ALI assessed as restoration of serum ALT level at 100 mg/kg, IG qd pretreated with compound for 7 days followed by CCl4 administration after 2 hrs post-compound treatment measured after 16 hrs post-CCl4 injection; type: functional, organism-based; conditions: time 186.0 hrs
[21] = system: Mus musculus; assay: Anti-MASH activity in HFD-fed CCl4-treated male C57BL/6 mouse assessed as reduction in hepatic cholesterol level at 150 mg/kg, po qd treated for 4 weeks by ELISA; type: functional, organism-based
[22] = system: Mus musculus; assay: Anti-MASH activity in HFD-fed CCl4-treated male C57BL/6 mouse assessed as reduction in hepatic triglyceride level at 150 mg/kg, po qd treated for 4 weeks by ELISA; type: functional, organism-based
[23] = system: Rattus norvegicus; assay: as §1, with “vacuoles” for “yellowing of liver”, “injection by H and E staining based analysis” for “injection”; type: functional, organism-based; conditions: time 186.0 hrs
[24] = Apparent clearance during terminal phase in overnight-fasted male Sprague-Dawley rat at 150 mg/kg, po measured up to 12 hrs by HPLC analysis; type: ADME, organism-based; conditions: in vivo, read-out: CLz/F (converted)
[25] = Cmax in overnight-fasted male Sprague-Dawley rat at 150 mg/kg, po measured up to 12 hrs by HPLC analysis; type: ADME, organism-based; conditions: in vivo
[26] = system: Rattus norvegicus; assay: Hepatoprotective activity in male Sprague-Dawley rat model of CCl4-induced ALI assessed as reduction in roughened surface in liver at 100 mg/kg, IG qd pretreated with compound for 7 days followed by CCl4 administration after 2 hrs post-compound treatment measured after 16 hrs post-CCl4 injection; type: functional, organism-based; conditions: time 186.0 hrs
[27] = system: Rattus norvegicus; assay: (§2) Hepatoprotective activity in male Sprague-Dawley rat model of CCl4-induced ALI assessed as reduction in white granular fat in liver at 100 mg/kg, IG qd pretreated with compound for 7 days followed by CCl4 administration after 2 hrs post-compound treatment measured after 16 hrs post-CCl4 injection; type: functional, organism-based; conditions: time 186.0 hrs
[28] = Apparent volume of distribution during terminal phase in overnight-fasted male Sprague-Dawley rat at 150 mg/kg, po measured up to 12 hrs by HPLC analysis; type: ADME, organism-based; conditions: in vivo, read-out: Vz/F
[29] = system: Rattus norvegicus; assay: Hepatoprotective activity in male Sprague-Dawley rat model of CCl4-induced ALI assessed as reduction in dullness of liver margin at 100 mg/kg, IG qd pretreated with compound for 7 days followed by CCl4 administration after 2 hrs post-compound treatment measured after 16 hrs post-CCl4 injection; type: functional, organism-based; conditions: time 186.0 hrs
[30] = system: Mus musculus; assay: Anti-MASH activity in HFD-fed CCl4-treated male C57BL/6 mouse assessed as reduction in inflammation in liver at 150 mg/kg, po qd treated for 4 weeks by H and E/Oil red O staining based analysis; type: functional, organism-based
[31] = AUC (0 to infinity) in overnight-fasted male Sprague-Dawley rat at 150 mg/kg, po measured up to 12 hrs by HPLC analysis; type: ADME, organism-based; conditions: in vivo
[32] = Tmax in overnight-fasted male Sprague-Dawley rat at 150 mg/kg, po measured up to 12 hrs by HPLC analysis; type: ADME, organism-based; conditions: in vivo
[33] = system: Rattus norvegicus; assay: as §2, with “acute” for “white granular”, “deposition” for “in liver”, “injection by oil red O staining based analysis” for “injection”; type: functional, organism-based; conditions: time 186.0 hrs
[34] = MRT (0 to infinity) in overnight-fasted male Sprague-Dawley rat at 150 mg/kg, po measured up to 12 hrs by HPLC analysis; type: ADME, organism-based; conditions: in vivo
[35] = system: Rattus norvegicus; assay: Hepatoprotective activity in male Sprague-Dawley rat model of CCl4-induced ALI assessed as restoration of serum LDH level at 100 mg/kg, IG qd pretreated with compound for 7 days followed by CCl4 administration after 2 hrs post-compound treatment measured after 16 hrs post-CCl4 injection; type: functional, organism-based; conditions: time 186.0 hrs

IC50 [2]: > 200 µM
solubility [3]: > 1000 mg/mL
IC50 [4]: 158 µM
solubility at 10 min [5]: 0.19 mg/mL (≈ 0.191 mM)
solubility [7]: 523 mg/mL (≈ 526 mM)
solubility [8]: 246 mg/mL (≈ 247 mM)
IC50 [9]: 28.7 µM
SMILES: COc1cc(C2Oc3cc([C@H]4Oc5cc(O)cc(O)c5C(=O)[C@@H]4O)ccc3OC2CSSCC2Oc3ccc([C@H]4Oc5cc(O)cc(O)c5C(=O)[C@@H]4O)cc3O[C@H]2c2ccc(O)c(OC)c2)ccc1O (single isomer, unassigned)
Activity [1]: 40.6%
Activity [6]: 53.9%
Activity [10]: 75.2%

IC50 [2]: > 200 µM
solubility [3]: 367 mg/mL (≈ 761 mM)
IC50 [4]: > 200 µM
half-life [19]: 2.45 h
CL/F [24]: 1250 mL/min
solubility at 10 min [5]: 0.14 mg/mL (≈ 0.29 mM)
solubility [7]: 15.4 mg/mL (≈ 31.9 mM)
Cmax [25]: 194 ng/mL
solubility [8]: 10.6 mg/mL (≈ 22 mM)
Vd/F [28]: 447 L
AUC(0-inf) [31]: 494 ng·h/mL
Tmax [32]: 1.02 h
MRT inf [34]: 5.22 h
IC50 [9]: > 100 µM
SMILES: COc1cc([C@@H]2Oc3cc([C@H]4Oc5cc(O)cc(O)c5C(=O)[C@@H]4O)ccc3OC2CO)ccc1O (stereo not given in full)
Activity [1]: 34.6%
Activity [11]: Active
Activity [12]: Active
Activity [13]: Non-toxic
Activity [14]: Active
Activity [15]: Active
Activity [16]: Non-toxic
Activity [17]: Active
Activity [18]: Active
Activity [20]: Active
Activity [21]: Active
Activity [22]: Active
Activity [23]: Active
Activity [6]: 47.2%
Activity [26]: Active
Activity [27]: Active
Activity [29]: Active
Activity [30]: Active
Activity [33]: Active
Activity [35]: Active
Activity [10]: 39.6%

IC50 [2]: > 200 µM
solubility [3]: > 1000 mg/mL
IC50 [4]: > 200 µM
solubility at 10 min [5]: 0.3 mg/mL (≈ 0.555 mM)
solubility [7]: > 1000 mg/mL
solubility [8]: > 1000 mg/mL
IC50 [9]: 24 µM
SMILES: COc1cc([C@@H]2Oc3cc([C@H]4Oc5cc(O)cc(O)c5C(=O)[C@@H]4O)ccc3OC2CSC(C)=O)ccc1O (stereo not given in full)
Activity [1]: 36.6%
Activity [6]: 39.3%
Activity [10]: 83.8%
